{"source": "patent US6737383B1", "about": "“Herbicidal oxadiazolidines” (priority 1999, dated 2004)", "key": {"soybean": {"test_system": "soybean", "assay": "Test B pre/postemergence soybean", "type": "in vivo, Glycine max", "procedure,_shortened": "(§1)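 Test chemicals in a non-phytotoxic solvent mixture with surfactant were sprayed preemergence onto planted seeds and postemergence onto plants 2 to 18 cm tall (1- to 4-leaf stage). After twelve to sixteen days in a greenhouse, injury was visually rated against untreated controls from 0 (no effect) to 10 (complete control).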"}, "smallflower flatsedge": {"test_system": "smallflower flatsedge", "assay": "Test B flood test smallflower flatsedge", "type": "in vivo, Cyperus difformis", "procedure,_shortened": "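Each value is a visual injury score relative to controls, with 10 meaning complete control and 0 no effect. Evaluation took place twelve to sixteen days after the 2-leaf-stage plants were treated and kept in the greenhouse.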"}, "wild oat [1]": {"test_system": "wild oat", "assay": "Test B pre/postemergence wild oat", "type": "in vivo, Avena fatua", "details": "for Plant response rating, Wild oats: Rate 250 g/ha", "procedure,_shortened": "as §1"}, "winter barley": {"test_system": "winter barley", "assay": "Test E winter barley", "type": "in vivo, Hordeum vulgare", "details": "Preemergence"}, "green foxtail": {"test_system": "green foxtail", "assay": "Test E green foxtail", "type": "in vivo, Setaria viridis", "details": "Preemergence"}, "blackgrass": {"test_system": "blackgrass", "assay": "Test E blackgrass", "type": "in vivo, Alopecurus myosuroides", "details": "Preemergence"}, "bermuda-grass": {"test_system": "bermuda-grass", "assay": "Test D bermudagrass", "type": "in vivo, Cynodon dactylon", "details": "Rate 125 g/ha, Preemergence; 0 to 100 scale, 0 no injury, 100 complete control", "procedure,_shortened": "(§2)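 Greenhouse pots, seeds in sandy loam; compounds formulated in non-phytotoxic solvent with surfactant; preemergence treatments went on the soil surface within one day of planting. Injury rated visually 14 to 21 days after application on a 0 (none) to 100 (complete control) scale.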"}, "crabgrass": {"test_system": "crabgrass", "assay": "Test B pre/postemergence crabgrass", "type": "in vivo, Digitaria sanguinalis", "procedure,_shortened": "as §1"}, "itchgrass": {"test_system": "itchgrass", "assay": "Test D itchgrass", "type": "in vivo, Rottboellia exaltata", "details": "Rate 125 g/ha, Preemergence; 0 to 100 scale, 0 no injury, 100 complete control", "procedure,_shortened": "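Scoring used a 0–100 visual injury scale, with 0 meaning no effect and 100 complete control, assessed 14–21 days after application alongside untreated pots. Preemergence treatments went onto sandy loam surfaces of separately potted seeds within a day of sowing.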"}, "winter wheat [2]": {"test_system": "winter wheat", "assay": "Test E winter wheat", "type": "in vivo, Triticum aestivum", "details": "Postemergence", "procedure,_shortened": "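Greenhouse-grown plants are treated (postemergence: 1- to 4-leaf stage, sandy loam/potting mix 60:40), then evaluated visually versus untreated controls some 21 to 28 days later.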"}, "Italian ryegrass": {"test_system": "Italian ryegrass", "assay": "Test E Italian ryegrass", "type": "in vivo, Lolium multiflorum", "details": "Preemergence"}, "wild oat [3]": {"test_system": "wild oat", "assay": "Test E wild oat", "type": "in vivo, Avena fatua", "details": "Preemergence"}, "winter wheat [4]": {"test_system": "winter wheat", "assay": "Test E winter wheat", "type": "in vivo, Triticum aestivum", "details": "Preemergence"}, "wheat": {"test_system": "wheat", "assay": "Test B pre/postemergence wheat", "type": "in vivo, Triticum aestivum", "details": "for Plant response rating, Wheat: Rate 250 g/ha", "procedure,_shortened": "as §1"}, "Johnson grass": {"test_system": "Johnson grass", "assay": "Test D Johnson grass", "type": "in vivo, Sorghum halepense", "details": "Rate 125 g/ha, Preemergence; 0 to 100 scale, 0 no injury, 100 complete control", "procedure,_shortened": "as §2"}, "[5]": {"details": "Postemergence, Rate 125 g/ha, scale of 0 to 10 where 0 is no effect and 10 is complete control"}, "[6]": {"details": "Preemergence, Rate 62 g/ha, scale 0 to 10 (0 no effect, 10 complete control)"}, "[7]": {"details": "Preemergence, Rate 125 g/ha, scale 0 to 10 (0 no effect, 10 complete control)"}, "[8]": {"details": "Preemergence, Rate 250 g/ha, scale of 0 to 10 where 0 is no effect and 10 is complete control"}, "[9]": {"details": "Preemergence, Rate 500 g/ha, scale 0 to 10 (0 no effect, 10 complete control)"}, "[10]": {"details": "Rate 62 g/ha, Postemergence, scale of 0 to 10 where 0 is no effect and 10 is complete control"}, "[11]": {"details": "Rate 500 g/ha, Postemergence, scale 0 to 10, 0 no effect, 10 complete control"}, "[12]": {"details": "Preemergence, Rate 125 g/ha, 0 is no effect, 10 is complete control"}, "[13]": {"details": "Preemergence, scale of 0 to 10 where 0 is no effect and 10 is complete control"}, "[14]": {"details": "Postemergence, scale 0 to 10, 0 is no effect, 10 is complete control"}, "[15]": {"details": "Rate 62 g/ha, 0 to 100 scale, 0 no effect, 100 complete control"}, "[16]": {"details": "Rate 125 g/ha, 0 to 100 scale (0 no effect, 100 complete control)"}, "[17]": {"details": "Rate 500 g/ha, 0 to 100 scale where 0 is no effect and 100 is complete control"}}}
{"smiles": "CC(C)N(C(=O)n1oc(=O)n(C(C)C)c1=O)c1ccc(Cl)cc1", "note": "[Compound 114]", "values": [{"measurement": "Soybean plant response rating", "setting": "soybean; [5]", "value": 3}, {"measurement": "Soybean plant response rating", "setting": "soybean; [6]", "value": 0}, {"measurement": "Plant response rating, Soybean", "setting": "soybean; [7]", "value": 0}, {"measurement": "Plant response rating, Soybean", "setting": "soybean; [8]", "value": 0}, {"measurement": "Soybean plant response rating", "setting": "soybean; [9]", "value": 3}, {"measurement": "Soybean plant response rating", "setting": "soybean; [10]", "value": 3}, {"measurement": "Plant response rating, Soybean", "setting": "soybean; Rate 250 g/ha, Postemergence, scale 0 to 10, 0 is no effect, 10 is complete control", "value": 5}, {"measurement": "Soybean plant response rating", "setting": "soybean; [11]", "value": 7}, {"measurement": "S. Flatsedge plant response rating", "setting": "smallflower flatsedge; Postemergence (flood test species), Rate 125 g/ha, scale of 0 to 10 where 0 is no effect and 10 is complete control", "value": 0}, {"measurement": "S. Flatsedge plant response rating", "setting": "smallflower flatsedge; Rate 62 g/ha, Postemergence section, flood test species, scale of 0 to 10 where 0 is no effect and 10 is complete control", "value": 0}, {"measurement": "Plant response rating, S. Flatsedge", "setting": "smallflower flatsedge; Rate 250 g/ha, Postemergence (flood test), scale 0 to 10, 0 is no effect, 10 is complete control", "value": 0}, {"measurement": "S. Flatsedge plant response rating", "setting": "smallflower flatsedge; Rate 500 g/ha, listed under Postemergence (flood test species), scale 0 to 10, 0 no effect, 10 complete control", "value": 0}, {"measurement": "Wild oats plant response rating", "setting": "wild oat [1]; [5]", "value": 0}, {"measurement": "Wild oats plant response rating", "setting": "wild oat [1]; [6]", "value": 5}, {"measurement": "Wild oats plant response rating (0 to 10 scale)", "setting": "wild oat [1]; [12]", "value": 7}, {"measurement": "Plant response rating, Wild oats", "setting": "wild oat [1]; [13]", "value": 9}, {"measurement": "Wild oats plant response rating", "setting": "wild oat [1]; [9]", "value": 10}, {"measurement": "Wild oats plant response rating", "setting": "wild oat [1]; [10]", "value": 0}, {"measurement": "Plant response rating, Wild oats", "setting": "wild oat [1]; [14]", "value": 2}, {"measurement": "Wild oats plant response rating", "setting": "wild oat [1]; [11]", "value": 2}, {"measurement": "Plant response rating, Barley (winter)", "setting": "winter barley; [15]", "value": 0}, {"measurement": "Plant response rating, Barley (winter)", "setting": "winter barley; [16]", "value": 5}, {"measurement": "Plant response rating, Barley (winter)", "setting": "winter barley; Rate 250 g/ha, 0 to 100 scale", "value": 10}, {"measurement": "Plant response rating, Barley (winter)", "setting": "winter barley; [17]", "value": 40}, {"measurement": "Plant response rating, Green foxtail", "setting": "green foxtail; [15]", "value": 45}, {"measurement": "Plant response rating, Green foxtail", "setting": "green foxtail; [16]", "value": 100}, {"measurement": "Plant response rating, Green foxtail", "setting": "green foxtail; Rate 250 g/ha, 0 to 100 scale", "value": 100}, {"measurement": "Plant response rating, Green foxtail", "setting": "green foxtail; [17]", "value": 85}, {"measurement": "Plant response rating, Blackgrass", "setting": "blackgrass; [15]", "value": 30}, {"measurement": "Plant response rating, Blackgrass", "setting": "blackgrass; [16]", "value": 50}, {"measurement": "Plant response rating, Blackgrass", "setting": "blackgrass; Rate 250 g/ha, 0 to 100 scale", "value": 50}, {"measurement": "Plant response rating, Blackgrass", "setting": "blackgrass; [17]", "value": 100}, {"measurement": "Plant response rating, Bermudagrass", "setting": "bermuda-grass", "value": 100}, {"measurement": "Crabgrass plant response rating", "setting": "crabgrass; [5]", "value": 8}, {"measurement": "Crabgrass plant response rating", "setting": "crabgrass; Postemergence, Rate 250 g/ha, scale 0 to 10, 0 no effect, 10 complete control", "value": 9}, {"measurement": "Crabgrass plant response rating", "setting": "crabgrass; [6]", "value": 2}, {"measurement": "Plant response rating, Crabgrass", "setting": "crabgrass; [7]", "value": 7}, {"measurement": "Plant response rating, Crabgrass", "setting": "crabgrass; [8]", "value": 9}, {"measurement": "Crabgrass plant response rating", "setting": "crabgrass; [9]", "value": 9}, {"measurement": "Crabgrass plant response rating", "setting": "crabgrass; [10]", "value": 2}, {"measurement": "Crabgrass plant response rating", "setting": "crabgrass; [11]", "value": 9}, {"measurement": "Plant response rating, Itchgrass", "setting": "itchgrass", "value": 20}, {"measurement": "Plant response rating, Wheat (winter)", "setting": "winter wheat [2]; Rate 62 g/ha, 0 to 100 scale", "value": 0}, {"measurement": "Plant response rating, Wheat (winter)", "setting": "winter wheat [2]; Rate 125 g/ha, 0 to 100 scale", "value": 10}, {"measurement": "Plant response rating, Wheat (winter)", "setting": "winter wheat [2]; Rate 250 g/ha, 0 to 100 scale (0 no effect, 100 complete control)", "value": 60}, {"measurement": "Plant response rating, Wheat (winter)", "setting": "winter wheat [2]; Rate 500 g/ha, 0 to 100 scale, 0 no effect, 100 complete control", "value": 20}, {"measurement": "Plant response rating, I. Ryegrass", "setting": "Italian ryegrass; [15]", "value": 20}, {"measurement": "Plant response rating, I. Ryegrass", "setting": "Italian ryegrass; [16]", "value": 30}, {"measurement": "Plant response rating, I. Ryegrass", "setting": "Italian ryegrass; Rate 250 g/ha, 0 to 100 scale", "value": 100}, {"measurement": "Plant response rating, I. Ryegrass", "setting": "Italian ryegrass; [17]", "value": 95}, {"measurement": "Plant response rating, Wild oat", "setting": "wild oat [3]; [15]", "value": 20}, {"measurement": "Plant response rating, Wild oat", "setting": "wild oat [3]; [16]", "value": 40}, {"measurement": "Plant response rating, Wild oat", "setting": "wild oat [3]; [17]", "value": 70}, {"measurement": "Plant response rating, Wheat (winter)", "setting": "winter wheat [4]; [15]", "value": 0}, {"measurement": "Plant response rating, Wheat (winter)", "setting": "winter wheat [4]; [16]", "value": 10}, {"measurement": "Plant response rating, Wheat (winter)", "setting": "winter wheat [4]; Rate 250 g/ha, 0 to 100 scale", "value": 0}, {"measurement": "Plant response rating, Wheat (winter)", "setting": "winter wheat [4]; [17]", "value": 0}, {"measurement": "Wheat plant response rating", "setting": "wheat; [5]", "value": 0}, {"measurement": "Wheat plant response rating", "setting": "wheat; [6]", "value": 0}, {"measurement": "Wheat plant response rating (0 to 10 scale)", "setting": "wheat; [12]", "value": 0}, {"measurement": "Plant response rating, Wheat", "setting": "wheat; [13]", "value": 2}, {"measurement": "Wheat plant response rating", "setting": "wheat; [9]", "value": 8}, {"measurement": "Wheat plant response rating", "setting": "wheat; [10]", "value": 0}, {"measurement": "Plant response rating, Wheat", "setting": "wheat; [14]", "value": 0}, {"measurement": "Wheat plant response rating", "setting": "wheat; [11]", "value": 0}, {"measurement": "Plant response rating Johnsongrass", "setting": "Johnson grass", "value": 0}]}
